US20190256474A1, “N-PHENYL-2-(3-PHENYL-6-OXO-1,6-DIHYDROPYRIDAZIN-1-YL)ACETAMIDE DERIVATIVES FOR TREATING CYSTIC FIBROSIS” (Proteostasis Therapeutics, Inc., priority 2016, published 2019)

Target: T1, ΔF508-CFTR (Homo sapiens, UniProt P13569, DEL508-508)
T1 construct: Primary lung epithelial cells homozygous for the Cystic Fibrosis-causing ΔF508 mutation were differentiated; endogenous in cells; host or cells: primary human bronchial epithelial cells (hBE), ΔF508/ΔF508
Experiment: hBE equivalent current (Ieq) assay, CFTR activity
Assay type: cell-based
Settings: relative to a CFTR amplifier at 3 μM, ΔF508 homozygous hBE, 24 h treatment; for Activity 3 μM: compound at 3 μM; for Activity 10 μM: compound at 10 μM
Method: Primary lung epithelial cells homozygous for the Cystic Fibrosis-causing ΔF508 mutation were differentiated for a minimum of 4 weeks in an air-liquid interface on Costar 24 well HTS filter plates prior to the equivalent current (Ieq) measurements. Cells were apically mucus-washed for 30 minutes 24 h prior to treatment with compounds. The basolateral media was removed and replaced with media containing the compound of interest diluted to its final concentration from DMSO stocks. Treated cells were incubated at 37° C. and 5% CO2 for 24 hours. At the end of the treatment period, the media was changed to the Ieq experimental solution for 2 hours before the experiment and plates are maintained in a CO2-free incubator during this period. The plates containing the cells were then placed in pre-warmed heating blocks at 36° C.±0.5 for 15 minutes before measurements are taken. The transepithelial voltage (VT) and conductance (GT) were measured using a custom 24 channel current clamp (TECC-24) with 24 well electrode manifold. The Ieq assay measurements were made following additions with standardized time periods:
1. The baseline VT and GT values were measured for approximately 20 minutes.
2. Benzamil was added to block ENaC for 15 minutes.
3. Forskolin plus VX-770 were added to maximally activate ΔF508-CFTR for 27 minutes.
4. Bumetanide was added to inhibit the NaK2Cl cotransporter and shut-off secretion of chloride.
The activity data captured was the area under the curve (AUC) for the traces of the equivalent chloride current. The AUC was collected from the time of the forskolin/VX-770 addition until the inhibition by bumetanide addition. Correction in response to compound treatment was scored as the increase in the AUC for compound-treated samples over that of vehicle-treated samples.
The results are shown below in Table 1. + indicates activity <150% of a CFTR amplifier with compound at concentration shown and amplifier at 3 μM; ++ indicates activity >150% of a CFTR amplifier with compound at concentration shown and amplifier at 3 μM.

T1 sequence (P13569 with tags, fused parts or gaps DEL508-508): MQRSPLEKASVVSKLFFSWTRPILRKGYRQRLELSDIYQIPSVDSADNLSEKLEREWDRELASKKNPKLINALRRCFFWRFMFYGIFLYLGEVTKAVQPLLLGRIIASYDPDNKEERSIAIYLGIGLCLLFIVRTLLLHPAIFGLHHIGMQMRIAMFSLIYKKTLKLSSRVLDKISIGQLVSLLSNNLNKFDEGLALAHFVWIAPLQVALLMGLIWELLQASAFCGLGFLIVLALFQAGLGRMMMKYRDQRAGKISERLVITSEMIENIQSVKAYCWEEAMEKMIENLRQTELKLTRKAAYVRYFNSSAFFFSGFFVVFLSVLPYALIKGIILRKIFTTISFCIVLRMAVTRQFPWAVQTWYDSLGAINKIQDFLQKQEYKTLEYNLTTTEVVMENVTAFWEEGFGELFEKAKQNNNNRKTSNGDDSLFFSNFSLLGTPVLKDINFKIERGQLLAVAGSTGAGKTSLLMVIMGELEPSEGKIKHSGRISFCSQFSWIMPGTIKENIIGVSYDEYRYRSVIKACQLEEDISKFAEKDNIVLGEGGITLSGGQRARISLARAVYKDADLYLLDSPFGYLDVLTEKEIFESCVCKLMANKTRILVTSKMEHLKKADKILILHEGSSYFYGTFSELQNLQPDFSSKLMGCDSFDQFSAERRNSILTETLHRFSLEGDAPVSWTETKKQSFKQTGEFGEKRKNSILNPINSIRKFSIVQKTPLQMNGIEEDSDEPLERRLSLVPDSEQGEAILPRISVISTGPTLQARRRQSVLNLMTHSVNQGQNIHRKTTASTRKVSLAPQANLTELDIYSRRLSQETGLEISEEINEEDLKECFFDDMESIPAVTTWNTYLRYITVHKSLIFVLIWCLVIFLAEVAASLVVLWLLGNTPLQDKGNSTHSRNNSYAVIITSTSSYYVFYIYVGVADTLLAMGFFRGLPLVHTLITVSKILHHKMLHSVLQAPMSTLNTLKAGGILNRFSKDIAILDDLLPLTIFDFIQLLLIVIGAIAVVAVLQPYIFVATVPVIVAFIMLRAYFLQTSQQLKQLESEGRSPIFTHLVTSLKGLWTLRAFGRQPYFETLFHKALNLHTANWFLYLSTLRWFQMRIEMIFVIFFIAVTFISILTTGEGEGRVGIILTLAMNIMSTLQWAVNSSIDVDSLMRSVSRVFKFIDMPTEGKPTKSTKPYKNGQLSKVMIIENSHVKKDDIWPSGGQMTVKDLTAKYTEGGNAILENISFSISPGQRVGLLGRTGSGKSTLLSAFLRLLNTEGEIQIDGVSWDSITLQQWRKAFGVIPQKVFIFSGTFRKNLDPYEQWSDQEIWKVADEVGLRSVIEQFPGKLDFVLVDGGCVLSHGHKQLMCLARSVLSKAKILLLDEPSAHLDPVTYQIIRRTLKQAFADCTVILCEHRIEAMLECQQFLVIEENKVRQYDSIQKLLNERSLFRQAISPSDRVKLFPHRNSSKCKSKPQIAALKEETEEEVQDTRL

Structure (SMILES) | Activity 3 μM | Activity 10 μM
COc1cccc(-c2ccc(=O)n(C(C)C(=O)Nc3cc(C(F)(F)F)cc(C(F)(F)F)c3)n2)c1 (centres unmarked) [Compound 41, N-(3,5-Bis(trifluoromethyl)phenyl)-2-(3-(3-methoxyphenyl)-6-oxopyridazin-1(6H)-yl)propanamide] | ++ (activity >150% of a CFTR amplifier with compound at concentration shown and amplifier at 3 μM) | ++ (activity >150% of a CFTR amplifier with compound at concentration shown and amplifier at 3 μM)
COc1cccc(-c2ccc(=O)n(C(C)C(=O)Nc3ccc(C(F)(F)F)cc3F)n2)c1 (centres unmarked) [Compound 42, N-(2-Fluoro-4-(trifluoromethyl)phenyl)-2-(3-(3-methoxyphenyl)-6-oxopyridazin-1(6H)-yl)propanamide] | ++ (activity >150% of a CFTR amplifier with compound at concentration shown and amplifier at 3 μM) | ++ (activity >150% of a CFTR amplifier with compound at concentration shown and amplifier at 3 μM)
COc1cccc(-c2ccc(=O)n(C(C)C(=O)Nc3ccc(C(F)(F)F)c(F)c3)n2)c1 (centres unmarked) [Compound 43, N-[3-Fluoro-4-(trifluoromethyl)phenyl]-2-[3-(3-methoxyphenyl)-6-oxo-1,6-dihydropyridazin-1-yl]propanamide] | ++ (activity >150% of a CFTR amplifier with compound at concentration shown and amplifier at 3 μM) | ++ (activity >150% of a CFTR amplifier with compound at concentration shown and amplifier at 3 μM)
COc1cccc(-c2ccc(=O)n(C(C)C(=O)Nc3ccc(C#N)cc3)n2)c1 (centres unmarked) [Compound 44, N-(4-Cyanophenyl)-2-(3-(3-methoxyphenyl)-6-oxopyridazin-1(6H)-yl)propanamide] | + (activity <150% of a CFTR amplifier with compound at concentration shown and amplifier at 3 μM) | + (activity <150% of a CFTR amplifier with compound at concentration shown and amplifier at 3 μM)
COc1cccc(-c2ccc(=O)n(C(C)C(=O)Nc3cccc(C#N)c3)n2)c1 (centres unmarked) [Compound 45, N-(3-Cyanophenyl)-2-(3-(3-methoxyphenyl)-6-oxopyridazin-1(6H)-yl)propanamide] | + (activity <150% of a CFTR amplifier with compound at concentration shown and amplifier at 3 μM) | + (activity <150% of a CFTR amplifier with compound at concentration shown and amplifier at 3 μM)
COc1cccc(-c2ccc(=O)n(C(C)C(=O)Nc3cc(Cl)cc(Cl)c3)n2)c1 (centres unmarked) [Compound 46, N-(3,5-Dichlorophenyl)-2-(3-(3-methoxyphenyl)-6-oxopyridazin-1(6H)-yl)propanamide] | ++ (activity >150% of a CFTR amplifier with compound at concentration shown and amplifier at 3 μM) | ++ (activity >150% of a CFTR amplifier with compound at concentration shown and amplifier at 3 μM)
COc1cccc(-c2ccc(=O)n(C(C)C(=O)Nc3ccc(C(F)(F)F)c(C(F)(F)F)c3)n2)c1 (centres unmarked) [Compound 47, N-[3,4-Bis(trifluoromethyl)phenyl]-2-[3-(3-methoxyphenyl)-6-oxo-1,6-dihydropyridazin-1-yl]propanamide] | ++ (activity >150% of a CFTR amplifier with compound at concentration shown and amplifier at 3 μM) | ++ (activity >150% of a CFTR amplifier with compound at concentration shown and amplifier at 3 μM)
CCOc1cccc(-c2ccc(=O)n(C(C)C(=O)Nc3ccc(C(F)(F)F)cc3)n2)c1 (centres unmarked) [Compound 48, 2-[3-(3-Ethoxyphenyl)-6-oxo-1,6-dihydropyridazin-1-yl]-N-[4-(trifluoromethyl)phenyl]propanamide] | ++ (activity >150% of a CFTR amplifier with compound at concentration shown and amplifier at 3 μM) | ++ (activity >150% of a CFTR amplifier with compound at concentration shown and amplifier at 3 μM)
CC(C)Oc1cccc(-c2ccc(=O)n(C(C)C(=O)Nc3ccc(C(F)(F)F)cc3)n2)c1 (centres unmarked) [Compound 49, 2-[6-Oxo-3-[3-(propan-2-yloxy)phenyl]-1,6-dihydropyridazin-1-yl]-N-[4-(trifluoromethyl)phenyl]propanamide] | ++ (activity >150% of a CFTR amplifier with compound at concentration shown and amplifier at 3 μM) | ++ (activity >150% of a CFTR amplifier with compound at concentration shown and amplifier at 3 μM)
CC(C(=O)Nc1ccc(C(F)(F)F)cc1)n1nc(-c2cccc(OCc3ccccc3)c2)ccc1=O (centres unmarked) [Compound 50, 2-[3-[3-(Benzyloxy)phenyl]-6-oxo-1,6-dihydropyridazin-1-yl]-N-[4-(trifluoromethyl)phenyl]propanamide] | ++ (activity >150% of a CFTR amplifier with compound at concentration shown and amplifier at 3 μM) | ++ (activity >150% of a CFTR amplifier with compound at concentration shown and amplifier at 3 μM)
CC(C(=O)Nc1ccc(C(F)(F)F)cc1)n1nc(-c2cccc(Oc3ccccc3)c2)ccc1=O (centres unmarked) [Compound 51, 2-[3-[3-(Phenoxy)phenyl]-6-oxo-1,6-dihydropyridazin-1-yl]-N-[4-(trifluoromethyl)phenyl]propanamide] | ++ (activity >150% of a CFTR amplifier with compound at concentration shown and amplifier at 3 μM) | ++ (activity >150% of a CFTR amplifier with compound at concentration shown and amplifier at 3 μM)
COc1ccc(F)c(-c2ccc(=O)n(C(C)C(=O)Nc3ccc(C(F)(F)F)cc3)n2)c1 (centres unmarked) [Compound 52, 2-[3-(2-Fluoro-5-methoxyphenyl)-6-oxo-1,6-dihydropyridazin-1-yl]-N-[4-(trifluoromethyl)phenyl]propanamide] | ++ (activity >150% of a CFTR amplifier with compound at concentration shown and amplifier at 3 μM) | ++ (activity >150% of a CFTR amplifier with compound at concentration shown and amplifier at 3 μM)
COc1cccc(-c2ccc(=O)n(C(Cc3ccccc3)C(=O)Nc3ccc(C(F)(F)F)cc3)n2)c1 (centres unmarked) [Compound 53, 2-(3-(3-Methoxyphenyl)-6-oxopyridazin-1(6H)-yl)-3-phenyl-N-(4-(trifluoromethyl)phenyl)propanamide] |  | + (activity <150% of a CFTR amplifier with compound at concentration shown and amplifier at 3 μM)
COc1cccc(-c2ccc(=O)n(C(C)(C(=O)Nc3ccc(C(F)(F)F)cc3)c3ccccc3)n2)c1 (centres unmarked) [Compound 54, 2-(3-(3-Methoxyphenyl)-6-oxopyridazin-1(6H)-yl)-2-phenyl-N-(4-(trifluoromethyl)phenyl)propanamide] |  | + (activity <150% of a CFTR amplifier with compound at concentration shown and amplifier at 3 μM)
